The values that follow come from US8481584B2, “1H-thieno[2,3-c]pyrazole derivatives useful as kinase inhibitors” (Nerviano Medical Sciences S.R.L., priority 2004, dated 2013).

The structures appear in SMILES notation. Like-named read-outs stand apart in the source and are kept apart here.

One assay has as its target T1, Aurora-2 (Homo sapiens, UniProt O14965).
T1 sequence (O14965 1-403): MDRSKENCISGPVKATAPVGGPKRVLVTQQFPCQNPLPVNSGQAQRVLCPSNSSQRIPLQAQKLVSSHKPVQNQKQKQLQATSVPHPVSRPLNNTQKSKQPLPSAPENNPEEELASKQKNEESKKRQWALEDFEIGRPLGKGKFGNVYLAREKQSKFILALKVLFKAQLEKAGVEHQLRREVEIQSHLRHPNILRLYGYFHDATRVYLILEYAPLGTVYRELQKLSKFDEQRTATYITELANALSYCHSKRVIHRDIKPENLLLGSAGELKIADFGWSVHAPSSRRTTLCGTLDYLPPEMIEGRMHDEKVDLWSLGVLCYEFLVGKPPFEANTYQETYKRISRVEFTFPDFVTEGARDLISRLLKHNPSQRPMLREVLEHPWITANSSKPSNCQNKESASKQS
In words: Inhibition assay of Aurora-2 activity (SPA technology). It counts as biochemical. The method, then: The inhibiting activity and the potency of selected compounds is determined through a method of assay based on the use of the SPA technology (Amersham Pharmacia Biotech).
The assay consists of the transfer of radioactivity labelled phosphate moiety by the kinase to a biotinylated substrate. The resulting 33P-labelled biotinylated product is allowed to bind to streptavidin-coated SPA beads (biotin capacity 130 pmol/mg), and light emitted was measured in a scintillation counter.
Inhibition Assay of Aurora-2 Activity
After 60 minutes at room temperature incubation, reaction was stopped and biotinylated peptide captured by adding 100 μl of bead suspension.
Stratification: 100 μl of CsCl2 5 M were added to each well and let stand 4 hour before radioactivity was counted in the Top-Count instrument.
Experimental data were analyzed by the computer program GraphPad Prizm using the four parameter logistic equation: y=bottom+(top−bottom)/(1+10^((logIC50−x)*slope)) where x is the logarithm of the inhibitor concentration, y is the response; y starts at bottom and goes to top with a sigmoid shape.

In assay [1] the test system is human colon cancer cell line HCT-116. Put plainly: In vitro cell proliferation assay. The class given is cell-based. The settings on record: HCT-116, 72 hours of treatment, cell count, read-out: Cell Antiproliferation IC50. The method, then: The compounds of the invention were further tested, in vitro, to assess the anti-proliferative effect onto cell cultures.
In Vitro Cell Proliferation Assay
The human colon cancer cell line HCT-116 was seeded at 5000 cells/cm2 in 24 wells plate (Costar) using F12 medium (Gibco) supplemented with 10% FCS (EuroClone, Italy) 2 mM L-glutamine and 1% penicillin/streptomycin and maintained at 37° C., 5% CO2 and 96% relative humidity. The following day, plates were treated in duplicates with 5 ul of an appropriate dilution of compounds starting from a 10 mM stock in DMSO. Two untreated control wells were included in each plate. After 72 hours of treatment, medium was withdrawn and cells detached from each well using 0.5 mL of 0.05% (w/v) Trypsin, 0.02% (w/v) EDTA (Gibco). Samples were diluted with 9.5 mL of Isoton (Coulter) and counted using a Multisizer 3 cell counter (Beckman Coulter). Data were evaluated as percent of the control wells: % of CTR=(Treated−Blank)/(Control−Blank).
IC50 values were calculated by LSW/Data Analysis using Microsoft Excel sigmoidal curve fitting.

[2] abbreviates: SPA assay, 10 μM ATP, 60 minutes at room temperature, read-out: Aurora-2 inhibition IC50.
[3] abbreviates: screened according to the methods of the pharmacology section, read-out: IC50 values for Aurora-2 inhibition.

For the compound `O=C(Nc1n[nH]c2sc(C(=O)N[C@H](CN3CCCC3)c3ccccc3)cc12)c1ccc(N2CCOCC2)cc1` [Compound 5, 3-[(4-morpholin-4-ylbenzoyl)amino]-N-[(1S)-1-phenyl-2-pyrrolidin-1-ylethyl]-1H-thieno[2,3-c]pyrazole-5-carboxamide], the results for the IC50 (on Aurora-2 (setting [2]); at Aurora-2 (setting [3]); in assay [1]) were 9 nM, below 20 nM and 30 nM, respectively. `C[C@@H](NC(=O)c1cc2c(NC(=O)c3ccc(N4CCOCC4)cc3)n[nH]c2s1)c1ccc(F)cc1` [Compound 3, N-[(1R)-1-(4-fluorophenyl)ethyl]-3-[(4-morpholin-4-ylbenzoyl)amino]-1H-thieno[2,3-c]pyrazole-5-carboxamide]: the IC50 is 6 nM at Aurora-2 (setting [2]), below 20 nM at Aurora-2 (setting [3]) and 35 nM in assay [1]. Take `CC(C)(NC(=O)c1cc2c(NC(=O)c3ccc(N4CCOCC4)cc3)n[nH]c2s1)c1ccccc1` [Compound 1, N-(1-methyl-1-phenylethyl)-3-[(4-morpholin-4-ylbenzoyl)amino]-1H-thieno[2,3-c]pyrazole-5-carboxamide]: the IC50 at Aurora-2 (setting [2]) was 5 nM; on Aurora-2 (setting [3]), below 20 nM; in assay [1] it was 6 nM.

Take `O=C(Nc1n[nH]c2sc(C(=O)NCc3ccccc3)cc12)c1ccc(N2CCOCC2)cc1` [Reference compound, N-benzyl-3-[(4-morpholin-4-ylbenzoyl)amino]-1H-thieno[2,3-c]pyrazole-5-carboxamide, reference compound]: the IC50 on Aurora-2 (setting [2]) is 18 nM; in assay [1], 184 nM.

Take `CC(C)(NC(=O)c1cc2c(NC(=O)c3cccs3)n[nH]c2s1)c1ccccc1` [Compound 16, N-(1-methyl-1-phenylethyl)-3-[(thien-2-ylcarbonyl)amino]-1H-thieno[2,3-c]pyrazole-5-carboxamide]: the IC50 on Aurora-2 (setting [2]) was 3 nM; at Aurora-2 (setting [3]) it was below 20 nM; in assay [1] it was 56 nM. For `CN1CCN(c2ccc(C(=O)Nc3n[nH]c4sc(C(=O)NC(C)(C)c5ccccc5)cc34)cc2)CC1` [Compound 29, N-(1-methyl-1-phenylethyl)-3-{[4-(4-methylpiperazin-1-yl)benzoyl]amino}-1H-thieno[2,3-c]pyrazole-5-carboxamide], the IC50 was 1 nM on Aurora-2 (setting [2]), below 20 nM on Aurora-2 (setting [3]) and 2 nM in assay [1].

In the case of `C[C@@H](NC(=O)c1cc2c(NC(=O)c3ccc(N4CCN(C)CC4)cc3)n[nH]c2s1)c1ccccc1` [Compound 36, 3-{[4-(4-methylpiperazin-1-yl)benzoyl]amino}-N-[(1R)-1-phenylethyl]-1H-thieno[2,3-c]pyrazole-5-carboxamide], the IC50 in assay [1] is 5 nM. For `O=C(Nc1n[nH]c2sc(C(=O)NC3(c4ccccc4)CC3)cc12)c1ccc(N2CCOCC2)cc1` [Compound 2, 3-[(4-morpholin-4-ylbenzoyl)amino]-N-(1-phenylcyclopropyl)-1H-thieno[2,3-c]pyrazole-5-carboxamide], the IC50 at Aurora-2 (setting [2]) is 3 nM; at Aurora-2 (setting [3]), below 20 nM; in assay [1], 23 nM. Regarding `CC(C)(NC(=O)c1cc2c(NC(=O)c3ccc(CNC4CC4)cc3)n[nH]c2s1)c1ccccc1` [Compound 62, 3-(4-Cyclopropylaminomethyl-benzoylamino)-1H-thieno[2,3-c]pyrazole-5-carboxylic acid (1-methyl-1-phenyl-ethyl)-amide], at Aurora-2 (setting [3]), the IC50 was below 20 nM. The same measure, in the same setting: to `CN1CCN(c2ccc(C(=O)Nc3n[nH]c4sc(C(=O)NC5(c6ccccc6)CC5)cc34)cc2)CC1` [Compound 35, 3-{[4-(4-methylpiperazin-1-yl)benzoyl]amino}-N-(1-phenylcyclopropyl)-1H-thieno[2,3-c]pyrazole-5-carboxamide] belongs below 20 nM; to `O=C(Nc1n[nH]c2sc(C(=O)NC3(c4ccccc4)CC3)cc12)c1ccco1` [Compound 23, 3-(2-furoylamino)-N-(1-phenylcyclopropyl)-1H-thieno[2,3-c]pyrazole-5-carboxamide], below 20 nM. Take `CC(C)(NC(=O)c1cc2c(NC(=O)c3ccc(CN4CCN(C(C)(C)C)CC4)cc3)n[nH]c2s1)c1ccccc1` [Compound 57, 3-[4-(4-tert-Butyl-piperazin-1-ylmethyl)-benzoylamino]-1H-thieno[2,3-c]pyrazole-5-carboxylic acid (1-methyl-1-phenyl-ethyl)-amide]: the IC50 on Aurora-2 (setting [3]) is below 20 nM.

For the compound `CC(C)(NC(=O)c1cc2c(NC(=O)c3ccc(CNC4CCC4)cc3)n[nH]c2s1)c1ccccc1` [Compound 63, 3-(4-Cyclobutylaminomethyl-benzoylamino)-1H-thieno[2,3-c]pyrazole-5-carboxylic acid (1-methyl-1-phenyl-ethyl)-amide], at Aurora-2 (setting [3]), the IC50 is below 20 nM. On to `CN1CCN(c2ccc(C(=O)Nc3n[nH]c4sc(C(=O)NC(C)(C)c5cccc(F)c5)cc34)cc2)CC1` [Compound 142, 3-[4-(4-Methyl-piperazin-1-yl)-benzoylamino]-1H-thieno[2,3-c]pyrazole-5-carboxylic acid [1-(3-fluoro-phenyl)-1-methyl-ethyl]-amide], for which the IC50 on Aurora-2 (setting [3]) is below 20 nM. For the compound `C[C@@H](NC(=O)c1cc2c(NC(=O)c3ccc(F)cc3)n[nH]c2s1)c1ccc(F)cc1` [Compound 11, 3-[(4-fluorobenzoyl)amino]-N-[(1R)-1-(4-fluorophenyl)ethyl]-1H-thieno[2,3-c]pyrazole-5-carboxamide], the IC50 at Aurora-2 (setting [3]) is below 20 nM.

With `CC(C)(NC(=O)c1cc2c(NC(=O)c3ccc(N4CCOCC4)nc3)n[nH]c2s1)c1ccccc1` [Compound 136, 3-[(6-Morpholin-4-yl-pyridine-3-carbonyl)-amino]-1H-thieno[2,3-c]pyrazole-5-carboxylic acid (1-methyl-1-phenyl-ethyl)-amide], the IC50 at Aurora-2 (setting [3]) is below 20 nM.

For the compound `CC(C)(NC(=O)c1cc2c(NC(=O)c3ccc(S(C)(=O)=O)cc3)n[nH]c2s1)c1ccccc1` [Compound 143, 3-(4-Methanesulfonyl-benzoylamino)-1H-thieno[2,3-c]pyrazole-5-carboxylic acid(1-methyl-1-phenyl-ethyl)-amide], the IC50 at Aurora-2 (setting [3]) was below 20 nM.
